Publication PMC10714399, “Open Source Antibiotics: Simple Diarylimidazoles Are Potent against Methicillin-Resistant Staphylococcus aureus” (ACS Infectious Diseases, 2023)

Experiments:
[1] = In vitro metabolic stability, rat liver microsomes (Monash); type: in vitro ADME; conditions: NADPH
Method: (§1) The metabolic stability assay was performed by incubating each test compound with a suspension of liver microsomes (0.4 mg/mL protein, 1 μM substrate, 37 °C). Microsomes were purchased from XenoTech. The metabolic reaction was initiated by the addition of an NADPH-regenerating system and quenched at various time points over a 60 min incubation by the addition of acetonitrile containing metolazone as an internal standard. Control samples (containing no NADPH) were included (quenched at 2, 30, and 60 min) to monitor for potential degradation in the absence of cofactor. […]
(§2) d) In Vitro Metabolic Stability
(§3) The metabolic stability assay was performed by incubating each test compound with a suspension of liver
(§4) microsomes (0.4 mg/mL, 37°C). The metabolic reaction was initiated by the addition of an NADPH-regenerating
(§5) system and quenched at various time points over a 60 minute incubation by the addition of acetonitrile containing
(§6) metolazone as internal standard. Control samples (containing no NADPH) were included (quenched at 2, 30 and 60
(§7) minutes) to monitor for potential degradation in the absence of cofactor.
(§8) The human liver microsomes used in this experiment were supplied by XenoTech, lot # 1710084.The rat liver
(§9) microsomes used in this experiment were supplied by XenoTech, lot # 1610290. Microsomal incubations were
(§10) performed at a substrate concentration of 1 µM.
(§11) Data analysis and interpretation:
(§12) Substrate depletion as a function of time was analysed as described by Obach (1999) Drug Metab. Dispos., 27:1350-
(§13) 1359. Intrinsic clearance (CLint) values were classified at the limits of low and high clearance bands based on a
(§14) rearrangement of the well stirred model of hepatic elimination. It should be noted that the potential impact of
(§15) compound binding (either in microsomes or in blood) on the relationship between in vitro intrinsic clearance and
(§16) hepatic clearance in vivo has not been accounted for in these studies.
(§17) In Vitro Intrinsic Clearance
(§18) Species (µL/min/mg protein)
(§19) Low Clearance High Clearance
(§20) Experimental results are tabulated on the following page(s).
(§21) (1 picture or pasted object on this page, not shown here)

[2] = In vitro metabolic stability, human liver microsomes (Monash); type: in vitro ADME; conditions: NADPH
Method: as §1, §2, §3, §4, §5, §6, §7, §8, §9, §10, §11, §12, §13, §14, §15, §16, §17, §18, §19, §20, §21

[3] = Distribution coefficient estimation using chromatography, gLogD (Monash); type: physicochemical
Source text: Partition coefficient values (LogD) of the test compounds were estimated at pH 7.4 by the correlation of their chromatographic retention properties against the characteristics of a series of standard compounds with known partition coefficient values. The method employed is a gradient HPLC-based derivation of the method developed by Lombardo.[42] […]
c) Distribution Coefficient Estimation using Chromatography (gLogDpH)
Partition coefficient values (LogD) of the test compounds were estimated at pH 7.4 by correlation of their
chromatographic retention properties against the characteristics of a series of standard compounds with known
partition coefficient values. […]
(§22) In Vitro Intrinsic Clearance […]
as §20, §21

[4] = Kinetic solubility estimation using nephelometry (Monash); type: physicochemical; conditions: for Sol 2.0: 0.01 M HCl, approx pH 2.0; for Sol 6.5: pH 6.5 phosphate buffer
Method: Compound in DMSO was spiked into either pH 6.5 phosphate buffer or 0.01 M HCl (approximately pH 2.0) with the final DMSO concentration being 1%. […]
b) Kinetic Solubility Estimation using Nephelometry (SolpH)
Compound in DMSO was spiked into either pH 6.5 phosphate buffer or 0.01 M HCl (approx pH 2.0) with the final
DMSO concentration being 1%. After 30 minutes had elapsed, samples were then analysed via Nephelometry to
determine a solubility range. See Bevan and Lloyd (2000) Anal Chem, 72:1781-1787. […]
as §22, §20, §21

SMILES | CLint, in vitro [1] | T1/2 [1] | CLint, in vitro [2] | T1/2 [2] | gLogD at pH 7.4 [3] | Sol 2.0 [4] | Sol 6.5 [4]
c1ccc(-c2nc3n(c2-c2ccc4c(c2)OCO4)CCS3)nc1 [UNC-ALM-DAI-16] | 74 µL/min/mg protein | 23 min | 37 µL/min/mg protein | 47 min | 1.6 | 25 to 50 µg/mL | 12.5 to 25 µg/mL
c1ccc(-c2nc3ccccn3c2-c2ccc3c(c2)OCO3)nc1 [UNC-ALM-DAI-18] | 99 µL/min/mg protein | 18 min | 47 µL/min/mg protein | 37 min | 1.8 | > 100 µg/mL | 25 to 50 µg/mL
c1ccc(-c2nc3n(c2-c2ccc4occc4c2)CCC3)nc1 [UNC-ALM-DAI-27] | 72 µL/min/mg protein | 24 min | 51 µL/min/mg protein | 34 min | 1.9 | > 100 µg/mL | 25 to 50 µg/mL
